Data: US10392398B2, “Inhibitors of Late SV40 Factor (LSF) as cancer chemotherapeutics” (TRUSTEES OF BOSTON UNIVERSITY, priority 2010, dated 2019)

Assays:
LSF [1] = molecular target: T1, LSF (Homo sapiens, UniProt Q12800); assay: Electrophoretic mobility shift assay (EMSA) of LSF DNA-binding; type: biochemical; conditions: in vitro translated LSF
T1 sequence (Q12800 1-502): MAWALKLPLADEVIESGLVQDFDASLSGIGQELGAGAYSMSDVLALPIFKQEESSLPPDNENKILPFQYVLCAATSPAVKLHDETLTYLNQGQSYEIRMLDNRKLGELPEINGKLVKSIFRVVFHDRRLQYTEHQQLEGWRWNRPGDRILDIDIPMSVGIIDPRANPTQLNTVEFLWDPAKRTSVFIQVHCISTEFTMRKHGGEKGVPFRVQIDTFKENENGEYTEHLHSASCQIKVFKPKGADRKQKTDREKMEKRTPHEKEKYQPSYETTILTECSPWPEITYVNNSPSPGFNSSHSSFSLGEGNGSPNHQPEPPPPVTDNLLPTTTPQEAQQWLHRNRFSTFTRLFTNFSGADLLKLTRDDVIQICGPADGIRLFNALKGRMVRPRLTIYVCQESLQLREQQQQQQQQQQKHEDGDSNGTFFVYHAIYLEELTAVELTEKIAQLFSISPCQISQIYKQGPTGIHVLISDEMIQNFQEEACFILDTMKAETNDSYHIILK
Description: LSF was translated in vitro as previously described^16 for use in EMSAs. Protein was preincubated with inhibitor or DMSO and then incubated with 0.5 μg poly d(I-C) for 15 min at 4° C. in 40 mM KCl, 15 mM HEPES pH 7.9, 1 mM EDTA, 0.5 mM DTT, 5% glycerol. Finally, radiolabelled double-stranded DNA ([…]—SEQ ID NO: 5- and its complement) were added for a 30-min incubation at 30° C. Results were visualized using a PhosphorImager and quantified using ImageQuant software.

QGY-7703 HCC cells = assay: HCC cell viability (MTT), QGY-7703; type: cell-based
Description: Cells were plated at 3×10^4 cells/mL, A549 and HeLa, and 1×10^4 cells/mL, NIH/3T3, in 96-well plates and incubated for 24 h to allow for cell adhesion. LSF-library compounds were dissolved in DMSO, serial diluted in appropriate medium and added to cells in triplicate (2 plates). DMSO was added to control wells at a final concentration of 1%. After 72 h incubation in the presence of compound, confluent cells were assayed for growth proliferation with CellTiter 96® AQueous One Solution Cell Proliferation Assay (MTS) (Promega) according to the manufacturer's protocol. Plates were read at 490 nm on a microplate reader, and IC50 values were determined as the percentage of compound-treated cell growth to control cell growth. HCC cells—one hour after plating HCC cells onto 96-well plates, compound or vehicle (DMSO) was added to the desired concentrations, keeping DMSO at 0.5%. At indicated time points, cell viability was assayed using the CellTiter 96® Non-Radioactive Cell Proliferation Assay (MTT) (Promega).

HepG3 cells = assay: TUNEL apoptosis assay, HepG3; type: cell-based; conditions: same conditions as QGY-7703
Description: HCC cells were plated 24 h prior to incubation with FQI1. At the indicated time points, cells were analyzed using the FragEL™ DNA fragmentation kit (Calbiochem) according to the manufacturer's protocol. Flow cytometry was performed using a FACS caliber (Becton Dickinson) and analyzed with Cell Quest software.

[2] = tested on: primary mouse hepatocytes; assay: Primary mouse hepatocytes, growth and toxicity; type: cell-based
Source text: Averages with SEM of three experiments are shown. *P<0.05, by one-tailed t-test. […] The cells were imaged separately for TUNEL-positivity and DNA at the top. Below: Merged images; green for TUNEL (Terminal deoxynucleotidyl transferase dUTP nick end labeling) staining, blue for DAPI (4′,6-diamidino-2-phenylindole) staining. […] Binucleate cells are common for adult hepatocytes.

QGY-7703-derived tumors = assay: Subcutaneous xenograft model of HCC in mice; type: in vivo; conditions: for growth of hepatocellular carcinoma in vivo: intraperitoneally once every 3 days, about 1.0-2.0 mg/kg
Source text: The inventors, in collaboration with other scientists performed in vivo experiments in a subcutaneous xenograft model, where mice with small QGY-7703-derived tumors were given multiple, spaced intraperitoneal injections of FQI1 (Formula IV) over a 2 week period, followed by an additional 2-weeks prior to analysis. […] However, expression of osteopontin, whose gene is activated directly by LSF^8, was abolished by FQI1 treatment, as was expression of Ki-67, indicative of the replicative capacity of the tumors (data not shown). […] In contrast to the dramatic effects on tumor growth, no general toxicity was evident in the inhibitor-treated animals, as assayed by lack of changes in body weight, feeding, grooming, posture, and general behavior, as well as hematoxylin and eosin staining of multiple tissues (data not shown), and levels of liver enzymes and protein in the blood (data not shown).

LSF [3] = molecular target: T1, LSF; assay: Chromatin immunoprecipitation of myc-LSF-HA binding to the endogenous POLA1 promoter; type: cell-based; parameters: expressed in transfected cells; conditions: human cell line
Description: USF-dependent reporter assays were performed with FQI1 only. Averages with standard deviation (SD) derive from 3-4 independent experiments. […] “−LSF”: translation extract with no programmed LSF. […] Myc-LSF-HA expression was induced with the small molecule inducer RSL1. In induced cells, FQI1 or vehicle was added for the final 12 h of myc-LSF-HA induction.

[4] = rats, single IV dose, 50 mg/mL dose level as printed

Description for Rat tolerability: The purpose of the study was to determine the tolerability of FQI-34 in rats as administered by IV at 3 dose levels-5, 15, and 50 mg/kg. FQI-34 was formulated in 20% DMSO/50% PEG-400/30% saline, and administered by IV at 5 mL/kg for compound or 10 mL/kg for vehicle alone. 6 rats per dose arm were used (3 male and 3 female), with single dose administration with monitoring over 14 days. Gross necropsy was performed at the end of the study.

In the case of `CCOc1ccccc1C1CC(=O)Nc2cc3c(cc21)OCO3` (racemic) [FQI1, 8-(2-ethoxyphenyl)-7,8-dihydro-[1,3]dioxolo[4,5-g]quinolin-6(5H)-one], the “modulation of LSF DNA-binding in EMSA” value (LSF [1]) is reported as “initial enhancement at low concentrations and inhibition at higher concentrations”, the “effect of exogenous thymidine on treated cell viability profiles” value (QGY-7703 HCC cells; QGY-7703, 20 μM thymidine) is reported as “not affected” and the “concentration at which decrease in HCC cell viability was observable” value (QGY-7703 HCC cells; QGY-7703, between 24 and 48 hours) is reported as 2 µM. For the same molecule, the “cellular proliferation of QGY-7703 cells (MTT)” value (QGY-7703 HCC cells; in words) was “decreased overall cellular proliferation”, the “TUNEL positivity of HepG3 cells” value (HepG3 cells) was “not TUNEL-positive” and the “growth consequences or toxicity in primary non-dividing mouse hepatocytes” value [2] was “No growth consequences or toxicity”. For the same molecule, the “suppression of growth of HCC tumor size” value (QGY-7703-derived tumors; about 1.0-2.0 mg/kg once every 3 days, versus untreated mice, data not shown) was 65-80%, the “general toxicity in inhibitor-treated animals” value (QGY-7703-derived tumors; body weight, feeding, grooming, posture, behavior, H&E of tissues) was “not evident” and the “expression of Ki-67 in endpoint tumors” value (QGY-7703-derived tumors; immunofluorescence) was “abolished”. For the same molecule, the “expression of osteopontin in endpoint tumors” value (QGY-7703-derived tumors; immunofluorescence) was “abolished”, the “tumor growth in mouse xenograft” value (QGY-7703-derived tumors; in words) was “remarkable decrease in tumor growth” and the “growth of hepatocellular carcinoma in vivo” value (QGY-7703-derived tumors; in words, listed as formula (IV)) was “prevented or delayed the growth of hepatocellular carcinoma”. The “growth of hepatocellular carcinoma in vivo” value (QGY-7703-derived tumors; in words, listed as formula IV) was “effective at abrogating the growth of hepatocellular carcinoma in vivo”, the “reduction of HCC tumor volume” value (QGY-7703-derived tumors; mouse model, data not shown) was “about 80%” and the “decrease in endpoint tumor volumes” value (QGY-7703-derived tumors; multiple intraperitoneal injections over 2 weeks, analysis 2 weeks later, data not shown) was roughly 9 fold. For the same molecule, the “binding of inducible HA-tagged LSF to the POLA1 promoter (ChIP)” value (LSF [3]) was “efficiently blocked”.

In the case of `CCOc1cc(N(C)C)ccc1C1CC(=O)Nc2cc3c(cc21)OCO3` (stereo not shown) [FQI-34, 8-(4-(dimethylamino)-2-ethoxyphenyl)-7,8-dihydro-[1,3]dioxolo[4,5-g]quinolin-6(5H)-one], the gross necropsy (Rat tolerability; end of study, 14 days after single IV dose of 5, 15 or 50 mg/kg) is reported as “no abnormal findings”, the “condition of all rats for duration of study” value (Rat tolerability; excluding the male rat B, 5, 15 and 50 mg/kg IV, 14 days) is reported as “within normal limits” and the “observations in all other rats at this dose level” value (Rat tolerability; rats, single IV dose, 15 mg/mL dose as printed, 14 days) is reported as “remained normal throughout the study”. The mortality (Rat tolerability; rats, single IV dose, 15 mg/mL dose as printed, believed to be due to stress and not compound related) was “Male Rat B died”, the observations upon dosing (Rat tolerability; [4]) was “pronation, increased respiratory rate, and decreased activity” and the “time until rats returned to normal” value (Rat tolerability; [4]) was no more than 30 min.
